Assay results: PMC11899342, “Novel Triazeneindole Antibiotics: Synthesis and Hit-to-Lead Optimization” (International Journal of Molecular Sciences, 2025)

Assays:
[1] = Stability in human liver microsomes; format: in vitro ADME
Procedure: The liver metabolism of the substance was studied in the microsomal fractions of human and rat livers (XenoTech HMMCPL, RTMCPL, Kansas City, KS, USA) in the presence of the cofactor of the oxidative enzymes NADPH (AppliChem, Darmstadt, Germany).
The plate was incubated in a thermal shaker for 10 min at 400 rpm and 37 °C; then, 2.4 µL of 100× stocks of the tested substance was added into each well. A total of 30 µL of 8× cofactor solution was added to each experimental well (two replicates), 30 µL of deionized water was added to one control well, and all wells were mixed three times using a multichannel pipette with a volume of 100 µL. After mixing, the plate was placed in a thermal shaker at 400 rpm and 37 °C. The reactions were terminated at the following time points—0, 5, 10, 15, 20, and 30 min—by transferring 30 µL of the reaction mixture from the corresponding well to 1.1 mL microtubes and adding 180 µL of acetonitrile with internal standard 200 ng/mL tolbutamide (Fluka, Switzerland). To evaluate the stability of the substance in the microsomes without the cofactor, two aliquots were taken from the control well, and the reactions were terminated at 0 and 30 min time points. […] Then, the samples were centrifuged for 10 min at 1500× g, and 150 μL of the supernatant was taken for UPLC–MS/MS analysis.

[2] = Stability in human plasma; format: in vitro ADME; conditions: 37 °C, 1 μM
Procedure: (§1) For the experiment, human and rat plasma (SD) was thawed at room temperature and centrifuged for 5 min at 1500× g. Eucatropine (Sigma-Aldrich, USA), which is unstable in human and rat plasma, was used as a control compound.
(§2) For stability evaluation, 3 μL of 100X solutions of the tested or control compound (0.1 mM) was added to 297 μL of the corresponding plasma (prewarmed to 37 °C) to a final concentration of 1 μM. The plasma samples were incubated with the test and control compounds in the 0.65 mL microtubes at 37 °C and under 300 rpm rotation. After 15, 30, 60, and 240 min, 30 μL aliquots were taken into 1.1 mL microtubes with 180 μL of chilled acetonitrile with an internal standard of 200 ng/mL tolbutamide (Fluka). The tubes were stirred and kept at 4 °C for 15 min, then centrifuged at 1500× g for 10 min. A total of 200 μL of the supernatants was transferred into microtubes and stored at −70 °C until UPLC–MS/MS analysis.

Stability in rat plasma = format: in vitro ADME; conditions: 37 °C, 1 μM
Procedure: as §1, §2

[3] = Single-dose acute toxicity, intragastric administration; format: in vivo, rat; conditions: both sexes, Wistar, rat, in vivo, po; rats, intragastric, single dose; read-out: maximum tolerated dose
Procedure: Before administration, the BX-SI043 substance was resuspended in a 1% starch solution. The animals in the treatment groups received suspensions intragastrically in doses of 2000 mg/kg (administered in two equal doses, with a 30–40 min interval), 1000 mg/kg, 600 mg/kg, and 300 mg/kg (administered in single doses).
The animals were monitored daily for any abnormalities. On the 2nd, 7th, and 13th days after administration, the animals were clinically evaluated and weighed, and the consumption of feed and water were measured. On the 14th day, the behavior of the animals was evaluated. On the 15th day, the animals were euthanized, and the lungs (with trachea), heart, thymus, liver, kidneys, spleen, stomach, small intestine, colon, brain, adrenal glands, and testes/ovaries were fixed in 10% neutral formalin for histological evaluation.

CCOC(=O)c1[nH]c2cc(F)ccc2c1/N=N/N1CCCC1 [BX-SI043, Ethyl (E)-6-fluoro-3-(pyrrolidin-1-yldiazenyl)-1H-indole-2-carboxylate]
Remaining after 30 min ([1]; NADPH): 0.00%
half-life ([1]; pH 7.4, NADPH): 2.73 min
microsomal CLint ([1]; pH 7.4, NADPH): 1020 µL/min/mg
metabolized in human plasma after 1 h ([2]; 1 h): about 50%
metabolized in human plasma after 4 h ([2]; 4 h): 97%
remaining in rat plasma after 15 min (Stability in rat plasma): 1.7%
MTD at 14 days [3]: 600 mg/kg
